Results: PubChem BioAssay (NCI)
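Dose response: 5 concentrations. Exposure: 48 h. Format: 96-well plates. Endpoint: linear interpolation; highest concentration if not reached. TGI denotes the concentration required for complete inhibition of growth.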 Peptide text beside a SMILES is read from it. * marks the point of attachment. Boc = CC(C)(C)OC(=O)*; OBn = c1ccc(CO*)cc1

Tests used:
Assay in all cases: NCI-60 cell line screen, 48 h
MALME-3M melanoma = tested on: MALME-3M melanoma
SNB-75 CNS = tested on: SNB-75 CNS
OVCAR-5 ovarian = tested on: OVCAR-5 ovarian
SN12C renal = tested on: SN12C renal
NCI-H23 lung = tested on: NCI-H23 lung
CAKI-1 renal = tested on: CAKI-1 renal
IGROV1 ovarian = tested on: IGROV1 ovarian
SK-MEL-28 melanoma = tested on: SK-MEL-28 melanoma
UACC-62 melanoma = tested on: UACC-62 melanoma
MDA-MB-435 = tested on: MDA-MB-435
RPMI-8226 leukemia = tested on: RPMI-8226 leukemia
MDA-N = tested on: MDA-N

O=C1C(=O)c2ccccc2C(O)=C1CN(CCCl)CCCl
TGI (MALME-3M melanoma): > 100 µM
TGI (SNB-75 CNS): > 100 µM
TGI (OVCAR-5 ovarian): > 100 µM
TGI (SN12C renal): > 100 µM
TGI (NCI-H23 lung): > 100 µM
TGI (CAKI-1 renal): > 100 µM
TGI (IGROV1 ovarian): 77.9 µM
TGI (SK-MEL-28 melanoma): > 100 µM
TGI (UACC-62 melanoma): > 100 µM

O=C(O)c1ccccc1C(=O)Nn1cnnc1
TGI (SNB-75 CNS): > 100 µM
TGI (OVCAR-5 ovarian): > 100 µM
TGI (SN12C renal): > 100 µM
TGI (MDA-MB-435): > 100 µM
TGI (NCI-H23 lung): > 100 µM
TGI (IGROV1 ovarian): > 100 µM
TGI (RPMI-8226 leukemia): > 100 µM
TGI (MDA-N): > 100 µM
TGI (SK-MEL-28 melanoma): > 100 µM
TGI (UACC-62 melanoma): > 100 µM

COC(=O)C1=C(\c2ccccc2)c2ccccc2C(=O)N(C2CCCCC2)/C=C\1
TGI (MALME-3M melanoma): 68.6 µM
TGI (SNB-75 CNS): > 100 µM
TGI (OVCAR-5 ovarian): > 100 µM
TGI (SN12C renal): > 100 µM
TGI (MDA-MB-435): 45.1 µM
TGI (NCI-H23 lung): > 100 µM
TGI (CAKI-1 renal): 54.6 µM
TGI (IGROV1 ovarian): > 100 µM
TGI (MDA-N): > 100 µM
TGI (SK-MEL-28 melanoma): 39.8 µM

CC12CCC(C(=O)N3CC=CCC3)(OC1=O)C2(C)C (stereo not drawn)
TGI (MALME-3M melanoma): > 100 µM
TGI (SNB-75 CNS): > 100 µM
TGI (OVCAR-5 ovarian): > 100 µM
TGI (SN12C renal): > 100 µM
TGI (NCI-H23 lung): > 100 µM
TGI (CAKI-1 renal): > 100 µM
TGI (IGROV1 ovarian): > 100 µM
TGI (RPMI-8226 leukemia): > 100 µM
TGI (SK-MEL-28 melanoma): > 100 µM
TGI (UACC-62 melanoma): > 100 µM

O=C(O)c1ccc2c(c1)CC1(C2)Cc2ccccc2C1=O (stereo not drawn)
TGI (MALME-3M melanoma): > 100 µM
TGI (SNB-75 CNS): > 100 µM
TGI (OVCAR-5 ovarian): > 100 µM
TGI (SN12C renal): > 100 µM
TGI (MDA-MB-435): > 100 µM
TGI (NCI-H23 lung): > 100 µM
TGI (IGROV1 ovarian): > 100 µM
TGI (RPMI-8226 leukemia): > 100 µM
TGI (MDA-N): > 100 µM
TGI (SK-MEL-28 melanoma): > 100 µM
TGI (UACC-62 melanoma): > 100 µM

COc1cc(NP(=O)(Oc2ccccc2)Oc2ccccc2)ccc1Nc1c2ccccc2nc2c1[nH]c1ccccc12
TGI (MALME-3M melanoma): 29.1 µM
TGI (SNB-75 CNS): 5.7 µM
TGI (OVCAR-5 ovarian): 30.2 µM
TGI (SN12C renal): 2.09 µM
TGI (MDA-MB-435): 21.5 µM
TGI (NCI-H23 lung): 12.3 µM
TGI (CAKI-1 renal): 17.3 µM
TGI (IGROV1 ovarian): > 100 µM
TGI (MDA-N): 15.4 µM
TGI (SK-MEL-28 melanoma): 48.2 µM
TGI (UACC-62 melanoma): 8.58 µM

Cc1ccc(SCC(CF)OCn2cc(F)c(=O)[nH]c2=O)cc1 (stereo not drawn)
TGI (MALME-3M melanoma): > 100 µM
TGI (OVCAR-5 ovarian): > 100 µM
TGI (MDA-MB-435): > 100 µM
TGI (NCI-H23 lung): > 100 µM
TGI (CAKI-1 renal): > 100 µM
TGI (IGROV1 ovarian): > 100 µM
TGI (RPMI-8226 leukemia): > 100 µM
TGI (MDA-N): > 100 µM
TGI (SK-MEL-28 melanoma): > 100 µM

c1ccc(Nc2nnc(Cn3ccc4ccccc43)s2)cc1
TGI (SNB-75 CNS): 82.8 µM
TGI (OVCAR-5 ovarian): > 100 µM
TGI (SN12C renal): > 100 µM
TGI (MDA-MB-435): > 100 µM
TGI (NCI-H23 lung): > 100 µM
TGI (CAKI-1 renal): 70.6 µM
TGI (IGROV1 ovarian): > 100 µM
TGI (RPMI-8226 leukemia): > 100 µM
TGI (MDA-N): > 100 µM
TGI (SK-MEL-28 melanoma): > 100 µM
TGI (UACC-62 melanoma): > 100 µM

COc1cc(NCc2ccc3nc(OC)c(OC)nc3c2)cc(OC)c1OC
TGI (MALME-3M melanoma): > 100 µM
TGI (SNB-75 CNS): > 100 µM
TGI (OVCAR-5 ovarian): > 100 µM
TGI (SN12C renal): > 100 µM
TGI (MDA-MB-435): > 100 µM
TGI (NCI-H23 lung): > 100 µM
TGI (CAKI-1 renal): > 100 µM
TGI (IGROV1 ovarian): > 100 µM
TGI (MDA-N): > 100 µM
TGI (SK-MEL-28 melanoma): > 100 µM
TGI (UACC-62 melanoma): > 100 µM

COc1cc(C2C3=C(COC3=O)Oc3cc4c(cc32)OCO4)ccc1OC(C)=O (stereo not drawn)
TGI (MALME-3M melanoma): 0.565 µM
TGI (SNB-75 CNS): 0.585 µM
TGI (OVCAR-5 ovarian): > 100 µM
TGI (SN12C renal): > 100 µM
TGI (NCI-H23 lung): > 100 µM
TGI (CAKI-1 renal): 0.904 µM
TGI (RPMI-8226 leukemia): > 100 µM
TGI (SK-MEL-28 melanoma): > 100 µM
TGI (UACC-62 melanoma): > 100 µM

COC1CC(OC2CCC3(C)C(CCC45CCC(C6=CC(=O)OC6)C(C)(CCC43)C5=O)C2)OC(C)C1O (stereo not drawn)
TGI (SNB-75 CNS): > 100 µM
TGI (OVCAR-5 ovarian): > 100 µM
TGI (SN12C renal): 61.9 µM
TGI (MDA-MB-435): > 100 µM
TGI (NCI-H23 lung): 48.3 µM
TGI (CAKI-1 renal): 80.1 µM
TGI (IGROV1 ovarian): > 100 µM
TGI (MDA-N): > 100 µM
TGI (SK-MEL-28 melanoma): > 100 µM
TGI (UACC-62 melanoma): > 100 µM

COc1ccc2cc(/C=N\NC(=O)Nc3cccc4ccccc34)ccc2c1
TGI (MALME-3M melanoma): > 100 µM
TGI (SNB-75 CNS): 47.2 µM
TGI (OVCAR-5 ovarian): > 100 µM
TGI (SN12C renal): > 100 µM
TGI (MDA-MB-435): > 100 µM
TGI (NCI-H23 lung): > 100 µM
TGI (CAKI-1 renal): 47.6 µM
TGI (IGROV1 ovarian): > 100 µM
TGI (MDA-N): > 100 µM
TGI (SK-MEL-28 melanoma): > 100 µM

CC(=O)N(CCc1ccccc1)C(C#N)c1ccc(OCCCCCCCCCCOc2ccc(C(C#N)N(CCc3ccccc3)C(C)=O)cc2)cc1 (stereo not drawn)
TGI (MALME-3M melanoma): > 100 µM
TGI (SNB-75 CNS): 38.3 µM
TGI (OVCAR-5 ovarian): > 100 µM
TGI (SN12C renal): > 100 µM
TGI (MDA-MB-435): > 100 µM
TGI (NCI-H23 lung): > 100 µM
TGI (CAKI-1 renal): > 100 µM
TGI (IGROV1 ovarian): > 100 µM
TGI (MDA-N): > 100 µM
TGI (SK-MEL-28 melanoma): > 100 µM
TGI (UACC-62 melanoma): > 100 µM

O=c1c2cccnc2cc(-c2ccccc2)n1CCO
TGI (MALME-3M melanoma): > 100 µM
TGI (SNB-75 CNS): > 100 µM
TGI (OVCAR-5 ovarian): > 100 µM
TGI (SN12C renal): > 100 µM
TGI (MDA-MB-435): > 100 µM
TGI (NCI-H23 lung): > 100 µM
TGI (IGROV1 ovarian): > 100 µM
TGI (RPMI-8226 leukemia): > 100 µM
TGI (MDA-N): > 100 µM
TGI (SK-MEL-28 melanoma): > 100 µM
TGI (UACC-62 melanoma): > 100 µM

O=c1oc2ccccc2nc1/C=C(\O)c1ccc([N+](=O)[O-])cc1
TGI (MALME-3M melanoma): > 100 µM
TGI (SNB-75 CNS): > 100 µM
TGI (OVCAR-5 ovarian): > 100 µM
TGI (SN12C renal): > 100 µM
TGI (MDA-MB-435): > 100 µM
TGI (NCI-H23 lung): > 100 µM
TGI (CAKI-1 renal): > 100 µM
TGI (IGROV1 ovarian): > 100 µM
TGI (UACC-62 melanoma): > 100 µM

CC(C)(C)[Si](C)(C)OCC1CCC(n2cnc3c(N)ncnc32)O1 (stereo not drawn)
TGI (SNB-75 CNS): > 100 µM
TGI (OVCAR-5 ovarian): > 100 µM
TGI (SN12C renal): > 100 µM
TGI (MDA-MB-435): 85.2 µM
TGI (NCI-H23 lung): > 100 µM
TGI (CAKI-1 renal): > 100 µM
TGI (IGROV1 ovarian): > 100 µM
TGI (RPMI-8226 leukemia): > 100 µM
TGI (MDA-N): > 100 µM
TGI (SK-MEL-28 melanoma): > 100 µM
TGI (UACC-62 melanoma): > 100 µM

COC(=O)c1ccc(N=NN(C)COc2ccc([N+](=O)[O-])cc2)cc1
TGI (MALME-3M melanoma): > 100 µM
TGI (SNB-75 CNS): > 100 µM
TGI (OVCAR-5 ovarian): > 100 µM
TGI (SN12C renal): > 100 µM
TGI (NCI-H23 lung): > 100 µM
TGI (CAKI-1 renal): > 100 µM
TGI (IGROV1 ovarian): > 100 µM
TGI (RPMI-8226 leukemia): > 95.3 µM
TGI (SK-MEL-28 melanoma): > 100 µM
TGI (UACC-62 melanoma): > 100 µM

CC(NC(=O)CNC(=O)OC(C)(C)C)C(=O)NC(Cc1ccccc1)C(=O)OCc1ccccc1 (stereo not drawn) (Boc-Gly-Ala-Phe-OBn; configuration not given here)
TGI (MALME-3M melanoma): > 100 µM
TGI (SNB-75 CNS): > 100 µM
TGI (OVCAR-5 ovarian): > 100 µM
TGI (SN12C renal): > 100 µM
TGI (MDA-MB-435): > 100 µM
TGI (NCI-H23 lung): > 100 µM
TGI (CAKI-1 renal): > 100 µM
TGI (IGROV1 ovarian): > 100 µM
TGI (MDA-N): > 100 µM
TGI (SK-MEL-28 melanoma): > 100 µM
TGI (UACC-62 melanoma): > 100 µM

CC/C=C/C(=O)CC(O)(C(F)(F)F)C(F)(F)F
TGI (MALME-3M melanoma): > 100 µM
TGI (SNB-75 CNS): > 100 µM
TGI (OVCAR-5 ovarian): > 100 µM
TGI (SN12C renal): > 100 µM
TGI (MDA-MB-435): > 100 µM
TGI (NCI-H23 lung): > 100 µM
TGI (IGROV1 ovarian): > 100 µM
TGI (RPMI-8226 leukemia): > 100 µM
TGI (SK-MEL-28 melanoma): > 100 µM
TGI (UACC-62 melanoma): > 100 µM

Cc1cccc(C)c1NC(=S)NC=C(C(N)=O)C(N)=O
TGI (SNB-75 CNS): > 100 µM
TGI (OVCAR-5 ovarian): > 100 µM
TGI (SN12C renal): > 100 µM
TGI (MDA-MB-435): > 100 µM
TGI (NCI-H23 lung): > 100 µM
TGI (CAKI-1 renal): > 100 µM
TGI (IGROV1 ovarian): > 100 µM
TGI (RPMI-8226 leukemia): > 100 µM
TGI (MDA-N): > 100 µM
TGI (SK-MEL-28 melanoma): > 100 µM
TGI (UACC-62 melanoma): > 100 µM

COC(=O)C1[C@@H](C(=O)OC)C12C=Cc1ccccc1C=C2 (stereo partly drawn)
TGI (MALME-3M melanoma): > 100 µM
TGI (OVCAR-5 ovarian): > 100 µM
TGI (SN12C renal): > 100 µM
TGI (NCI-H23 lung): > 100 µM
TGI (IGROV1 ovarian): > 100 µM
TGI (RPMI-8226 leukemia): > 100 µM
TGI (SK-MEL-28 melanoma): > 100 µM
TGI (UACC-62 melanoma): > 100 µM
